Measured values published in the SangsterLogP compilation.

Test: method code SF-GLC, from DOI: 10.1584/jpestics.5.553

| Structure (SMILES) | logP |
| --- | --- |
| CC(C)(C)OC(=O)C(C(=O)OC(C)(C)C)=C1SCCS1 | 4.01 |
| CCOC(=O)C(C(=O)OC(C)C)=C1SCCS1 | 2.9 |
| CC(C)OC(=O)C(C(=O)OC(C)C)=C1SCCS1=O (stereo not given) | 1.6 |
| CCCCCCCOC(=O)C(C(=O)OCCCCCCC)=C1SCCS1 | 7.6 |
| COC(=O)C(C(=O)OC)=C1SCCS1 | 1.51 |
| CCCOC(=O)C(C(=O)OCCC)=C1SCCS1 | 3.38 |
| CCCCOC(=O)C(C(=O)OCCCC)=C1SCCS1 | 4.6 |
| CSC(SC)=C(C(=O)OC(C)C)C(=O)OC(C)C | 3.38 |
| CCCCCOC(=O)C(C(=O)OCCCCC)=C1SCCS1 | 5.6 |
| CCOC(=O)C(C(=O)OCC)=C1SCCS1 | 2.45 |
